Test results published in the supplement of paper PMC11061612.

Experiments:
Test in all cases: combination Emax (second highest fraction inhibited in the dose matrix, 72 h); higher = more inhibition; extreme values may be limits of the assay
[1] = tested on: Calu-6 (Non-Small Cell Lung Carcinoma)
Procedure, shortened: (§1)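 Cell lines grown in DMEM/F12 or RPMI with 10% FBS were plated in 1536-well plates and held 24 hours at 37°C, 5% CO2 before 72 hours of exposure to two-drug dose matrices, with DMSO typically at 0.2%. CellTiter-Glo 2.0 luminescence gave viability, which was converted to inhibition. Vehicle wells were set to 0 and blank wells to 1. Combination Emax is the second-highest inhibition in the matrix, and Bliss excess is the observed combination effect minus the expected EA + EB − EA·EB, where EA and EB are the single-agent effects.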

786-0 (Kidney Carcinoma) = tested on: 786-0 (Kidney Carcinoma)
Procedure, shortened: as §1

[2] = tested on: HSC-3 (Oral Cavity Carcinoma)
Procedure, shortened: as §1

[3] = tested on: HTC-C3 (Thyroid Gland Carcinoma)
Procedure, shortened: as §1

RT4 (Bladder Carcinoma) = tested on: RT4 (Bladder Carcinoma)
Procedure, shortened: as §1

[4] = tested on: AsPC-1 (Pancreatic Carcinoma)
Procedure, shortened: as §1

[5] = tested on: FLO-1 (Esophageal Adenocarcinoma)
Procedure, shortened: as §1

[6] = tested on: LAMA-84 (Chronic Myelogenous Leukemia)
Procedure, shortened: as §1

[7] = tested on: OCI-AML5 (Acute Myeloid Leukemia)
Procedure, shortened: as §1

[8] = tested on: SW684 (Other Solid Carcinomas)
Procedure, shortened: as §1

[9] = tested on: NCI-H1755 (Lung Adenocarcinoma)
Procedure, shortened: as §1

[10] = tested on: OV-90 (Ovarian Carcinoma)
Procedure, shortened: as §1

[11] = tested on: SK-MM-2 (Plasma Cell Myeloma)
Procedure, shortened: as §1

[12] = tested on: NCI-H810 (Non-Small Cell Lung Carcinoma)
Procedure, shortened: as §1

[13] = tested on: JHH-1 (Hepatocellular Carcinoma)
Procedure, shortened: as §1

[14] = tested on: Caov-3 (Ovarian Carcinoma)
Procedure, shortened: as §1

[15] = tested on: SJRH30 (Rhabdomyosarcoma)
Procedure, shortened: as §1

[16] = tested on: LOUCY (T-Lymphoblastic Leukemia)
Procedure, shortened: as §1

[17] = tested on: RPMI-8866 (Chronic Myelogenous Leukemia)
Procedure, shortened: as §1

ES-2 (Ovarian Carcinoma) = tested on: ES-2 (Ovarian Carcinoma)
Procedure, shortened: as §1

Row | Structure (SMILES) | combination Emax [1] | combination Emax (786-0 (Kidney Carcinoma)) | combination Emax [2] | combination Emax [3] | combination Emax (RT4 (Bladder Carcinoma)) | combination Emax [4] | combination Emax [5] | combination Emax [6] | combination Emax [7] | combination Emax [8] | combination Emax [9] | combination Emax [10] | combination Emax [11] | combination Emax [12] | combination Emax [13] | combination Emax [14] | combination Emax [15] | combination Emax [16] | combination Emax [17] | combination Emax (ES-2 (Ovarian Carcinoma))
1 | Cc1cc2ncnn2cc1Nc1ncc2c(n1)n(C1CCOCC1)c(=O)n2C [AZD7648] + CN(C)CCCOc1ccc(-c2ccc3ncc4c(c3c2)n(C2CCOCC2)c(=O)n4C)cn1 [AZD0156] (first compound max 10 µM, 7x7, partner max 1 µM) | 0.381 | 0.18 | 0.174 | 0.161 | 0.42 | 0.274 | 0.358 | 0.202 | 0.297 | 0.268 | 0.362 | 0.216 | 0.205 | 0.287 | 0.207 | 0.366 | 0.165 | 0.604 | 0.638 | 0.295
2 | CC1(C)CCC(CN2CCN(c3ccc(C(=O)NS(=O)(=O)c4ccc(NCC5CCOCC5)c([N+](=O)[O-])c4)c(Oc4cnc5[nH]ccc5c4)c3)CC2)=C(c2ccc(Cl)cc2)C1 [Venetoclax] + C=CCn1c(=O)c2cnc(Nc3ccc(N4CCN(C)CC4)cc3)nc2n1-c1cccc(C(C)(C)O)n1 [AZD1775] (first compound max 1 µM, partner max 1 µM) | 0.787 | 0.582 | 0.492 | 0.341 | 0.372 | 0.282 | 0.84 | 0.964 | 1 | 0.604 | 0.846 | 0.512 | 1 | 0.781 | 0.578 | 0.801 | 0.9 | 1 | 0.951 | 0.644
3 | Cc1cc2ncnn2cc1Nc1ncc2c(n1)n(C1CCOCC1)c(=O)n2C [AZD7648] + CCN(CCO)CCCOc1ccc2c(Nc3cc(CC(=O)Nc4cccc(F)c4)[nH]n3)ncnc2c1 [AZD2811] (first compound max 10 µM, 7x7, partner max 1 µM) | 0.317 | 0.215 | 0.455 | 0.202 | 0.491 | 0.267 | 0.406 | 0.336 | 0.969 | 0.352 | 0.599 | 0.323 | 0.313 | 0.643 | 0.113 | 0.885 | 0.24 | 0.948 | 0.732 | 0.288
4 | Cc1c2c(nn1C)CSCc1cc(n(C)n1)CSc1cc(c3ccccc3c1)OCCCc1c(C(=O)O)n(C)c3c-2c(Cl)ccc13 [AZD5991] + C=CCn1c(=O)c2cnc(Nc3ccc(N4CCN(C)CC4)cc3)nc2n1-c1cccc(C(C)(C)O)n1 [AZD1775] (first compound max 1 µM, partner max 1 µM) | 0.77 | 0.804 | 0.851 | 0.454 | 0.53 | 0.369 | 0.891 | 0.968 | 1 | 0.273 | 0.79 | 0.521 | 0.707 | 0.949 | 0.721 | 0.775 | 0.912 | 1 | 0.978 | 0.842
5 | CCN(CCO)CCCOc1ccc2c(Nc3cc(CC(=O)Nc4cccc(F)c4)[nH]n3)ncnc2c1 [AZD2811] + C=CCn1c(=O)c2cnc(Nc3ccc(N4CCN(C)CC4)cc3)nc2n1-c1cccc(C(C)(C)O)n1 [AZD1775] (first compound max 1 µM, partner max 1 µM) | 0.727 | 0.546 | 0.492 | 0.3 | 0.408 | 0.293 | 0.769 | 0.917 | 0.978 | 0.165 | 0.76 | 0.654 | 0.644 | 0.886 | 0.335 | 0.846 | 0.827 | 1 | 1 | 0.627
6 | CN(CCO)CC[C@H](CSc1ccccc1)Nc1ccc(S(=O)(=O)NC(=O)c2ccc(N3CCC([C@@H](O)c4ccccc4-c4ccc(Cl)cc4)CC3)cc2)cc1S(=O)(=O)C(F)(F)F [AZD4320] + C[C@@H](Nc1cc(F)cc(F)c1)c1cc(C(=O)N(C)C)cc2c(=O)cc(N3CCOCC3)oc12 [AZD8186] (first compound max 1 µM, 7x7, partner max 3 µM) | 0.592 | 0.415 | 0.711 | 0.407 | 0.583 | 0.739 | 0.486 | 0.728 | 1 | 0.702 | 0.45 | 0.795 | 1 | 0.592 | 0.747 | 0.911 | 0.457 | 1 | 0.864 | 0.334
